Entries after “also recorded” stand apart in the source; their conditions may differ. Bridge positions count the residues as written; N and C are the ends. Square brackets hold non-standard residues; d marks the D form. Peptide text beside a SMILES is read from it. * marks the point of attachment. Ileψ(thiazoline)Cys = CC[C@H](C)[C@H](N)C1=N[C@H](C(=O)*)CS1; dOrn = NCCC[C@@H](N)C(=O)O
Columns and labels:
P. aeruginosa [1] = experiment: P. aeruginosa infection in abraded mouse skin; assay type: in vivo; conditions: FIG. 4
[2] = tested on: Staphylococcus aureus ATCC #6538; experiment: Inoculated partial thickness wounds in pig; assay type: in vivo; conditions: treated twice per day, mean ± SD
Protocol: Experimental animals. A young female specific pathogen free (SPF: Looper Farms, North Carolina) pig weighing 25-30 kg was kept in house for two weeks prior to initiating the experiment. The animal was fed a basal diet ad libitum and housed individually in animal facilities (meeting American Association for Accreditation of Laboratory Animal) with controlled temperature (19-21° C.) and lights (12 h/12 h LD). The experimental animal protocols used for this study followed the federal guidelines for the care and use of laboratory animals (U.S. Department of Health and Human Services, U.S. Department of Agriculture). Animals were monitored daily for any observable signs of pain or discomfort. […] A small amount of the inoculum suspension was plated onto culture media to quantitate the exact concentration of viable organisms prior to the experiment. […] At each sampling time, sites were cultured quantitatively. […] Serial dilutions were made and scrub solutions were quantitated using the Spiral Plater System that deposits a small defined amount (50 μl) of suspension over the surface of a rotating agar plate. […]

S. aureus [3] = experiment: Suture skin infection (deep tissue infection) mouse model; assay type: in vivo; conditions: deep cut in mouse, S. aureus introduced into the incision; FIG. 13
Protocol: It was determined whether nisin and mupirocin, either alone or in combination with each other, would be able to treat S. aureus in a deep tissue infection model. A suture skin infection model was generated in which a deep cut (e.g., one needing sutures to close) was made in a mouse and S. aureus introduced into the incision. […] Thus, a combination of nisin and mupirocin can be used to treat a deep tissue infection as well as a […] infection.

S. aureus [4] = experiment: Mouse skin infection model: S. aureus infection in abraded mouse skin; assay type: in vivo; conditions: for efficacy compared with independent administration of nisin: PEG ointment or G&W petrolatum base bacitracin formulation, FIG. 2; for additive or synergistic effect when combined with nisin: skin infection, combined with nisin (See Example 1)
Protocol: (§1) Mouse Skin Infection Model: An overnight culture of S. aureus grown in tryptic soy broth (SA8; range from 1 to 6×10^9 CFUs/mL) was centrifuged at 4000×g for 10 minutes and resuspended in an equal volume of phosphate buffered saline (PBS). The bacteria were diluted to a percent transmittance of 40 (Spectronic 20D+) and diluted a subsequent 1:1000 in PBS for a final bacteria concentration of about 3×10^5. SKH1 (hrhr) hairless mice (Charles River) were sedated with 0.2 mL of ketamine (80 mg/kg) and xylazine (32 mg/kg) delivered intraperitoneally. The upper back of the mice were scrubbed with a 70% alcohol wipe and allowed to dry. Fine abrasions were made on the backs' of the mice between the shoulders using 150 grit sandpaper. Bacteria were swabbed over the abraded area with a sterile, cotton-tipped applicator until the area was saturated with the solution.
Topical Ointment: 74 g of PEG 400 and 24 g of PEG 3350 were added to a 250 mL glass beaker and heated until all of the PEG 3350 was melted. The solution was stirred well and allowed to cool to room temperature, which results in a smooth, opaque ointment. Powdered nisin and bacitracin were added to the ointment on a w/w basis and stirred until homogenously mixed. For formulations containing mupirocin, 1 g of Bactroban Ointment was weighed into a container and powdered nisin added to 2% or 6% (w/w) and mixed well. Lysostaphin was first dissolve to a concentration of about 150 mg/mL in DI water before mixing into the ointment to give a final concentration of 2% (w/w).
Treatment of Infected Skin with Topical Ointment: Treatments aimed to eradicate S. aureus skin infections in the mouse model were started on the morning after infection (Day 1). About 0.1 g of the topical ointments containing nisin (0, 2, or 6% w/w), mupirocin (0 or 2%), bacitracin (0 or 500U), and lysostaphin (0 or 2% w/w) were swabbed over the infected area 3 times a day on Days 1 and 2 using a sterile, polyester-tipped applicator. The mice were sacrificed by CO2 asphyxiation on the morning of Day 3 and a 0.5-cm^2 patch of skin around the infected area was excise. The skin sample was dissected and placed into a test tube containing 1 mL of 5 mg/mL proteinase K, 20 mg/mL esterase, and 20 mg/mL activated charcoal in PBS to neutralize the activity of the antibacterial agents. Bacteria were dislodged from the skin sample by sonication: 2 minute treatments per sample with alternating 5 seconds at 3 W and 5 seconds at 0 W in a Virsonic 600 with microtip (VirTis). After mixing by vortex, 50 μL of each sample was streaked onto blood agar plates, incubated at 37° C. overnight, and the colonies were counted and compared to untreated controls.
For the following data, except where noted in FIG. 2, all antibiotic formulations were in a common polyethylene glycol (PEG) ointment (PEG 400 plus PEG 3350).

[5] = tested on: S. aureus strain resistant to mupirocin; experiment: Mupirocin-resistant S. aureus infection in abraded mouse skin; assay type: in vivo; conditions: FIG. 3
Protocol: as §1
Topical Ointment: 74 g of PEG 400 and 24 g of PEG 3350 were added to a 250 mL glass beaker and heated until all of the PEG 3350 was melted. […]
Treatment of Infected Skin with Topical Ointment: Treatments aimed to eradicate S. aureus skin infections in the mouse model were started on the morning after infection (Day 1). […] After mixing by vortex, 50 μL of each sample was streaked onto blood agar plates, incubated at 37° C. overnight, and the colonies were counted and compared to untreated controls. […]

P. aeruginosa [6] = conditions: previously shown; cited from earlier work
S. aureus [7] = experiment: In vitro MIC of nisin alone or in combination (log reduction of viable S. aureus); assay type: cell-based; conditions: FIG. 11
Protocol: In order to determine if nisin could function in a synergistic way with other antimicrobials to treat (e.g., kill and/or inhibit growth of) bacteria in vitro, the minimum inhibitory concentration (MIC) of nisin alone or nisin in combination with either mupirocin, neomycin or gentamicin were tested. The MIC was determined by calculating the log reduction of viable S. aureus following incubation with the amounts of nisin and other antimicrobials as indicated in FIG. 11.

S. aureus [8] = experiment: Superficial skin abrasion / superficial wound skin infection model; assay type: in vivo; conditions: for synergy with mupirocin in the skin infection model: used in combination with mupirocin; for synergy with nisin in the skin infection model: used in combination with nisin
Protocol: Mice provided a superficial skin abrasion and inoculated with S. aureus as described in Example 2 were treated with a composition comprising a combination of 6% nisin and 0.1% gentamicin.
In order to determine if nisin could function in a synergistic way with other antimicrobials to treat (e.g., kill and/or inhibit growth of) bacteria in a superficial wound model (See Example 2), nisin was used in combination with either neomycin or gallidermin and tested.
In order to determine if nisin or gallidermin could function in a synergistic way with other antimicrobials to treat (e.g., kill and/or inhibit growth of) bacteria in a superficial wound model (See Example 2), nisin or gallidermin were used in combination with either gentamicin and mupirocin, respectively, and tested. Nisin did synergize with gentamicin and gallidermin did synergize with mupirocin to reduce bacterial counts in the skin infection model.
In order to determine if mupirocin could function in a synergistic way with bacitracin to treat (e.g., kill and/or inhibit growth of) bacteria in a superficial wound model (See Example 2), mupirocin was used in combination with bacitracin and tested for the ability to treat bacteria.

Row | Molecule | ability to synergize in vitro with nisin (S. aureus [7]) | synergy with mupirocin in the skin infection model (S. aureus [8]) | synergy with nisin in the skin infection model (S. aureus [8]) | efficacy compared with independent administration of nisin (S. aureus [4]) | additive or synergistic effect when combined with nisin (S. aureus [4]) | other results
1 | C/C(=C\C(=O)OCCCCCCCCC(=O)O)C[C@@H]1OC[C@H](C[C@@H]2O[C@H]2[C@@H](C)[C@H](C)O)[C@@H](O)[C@H]1O [Mupirocin, mupirocin] | none of the antimicrobials tested (i.e., mupirocin, neomycin, and gentamicin) displayed the ability to synergize in vitro with nisin | – | – | – | – | additional activity added to the nisin formulation (P. aeruginosa [1]): does not add any additional activity; Av. Count (S. aureus recovered from wounds) ([2]; Day 7 post treatment): 1.63 ± 1.42 Log cfu/ml; Av. Count (S. aureus recovered from wounds) ([2]; two days after initial treatment): 4.96 ± 0.8 Log CFU/ml; efficacy in treating S. aureus in suture infection model (S. aureus [3]): very little efficacy; decrease in infectious CFUs (S. aureus [4]; abraded mouse skin, drug alone in PEG ointment, 3 times a day on Days 1 and 2, skin sampled Day 3, vs untreated controls, FIG. 1): 3 logs; animals cleared of infection (S. aureus [4]; abraded mouse skin, topical ointment 3 times a day on Days 1 and 2, FIG. 1): Neither drug alone was able to completely clear the infection; activity against mupirocin-resistant S. aureus strain [5]: minimal activity; activity against P. aeruginosa (P. aeruginosa [6]): poor activity
2 | gallidermin | – | did synergize | did not synergize | – | – | –
3 | gentamicin | none of the antimicrobials tested (i.e., mupirocin, neomycin, and gentamicin) displayed the ability to synergize in vitro with nisin | – | did synergize | – | – | –
4 | CC[C@H](C)[C@H](N)C1=N[C@H](C(=O)N[C@@H](CC(C)C)C(=O)N[C@H](CCC(=O)O)C(=O)N[C@H](C(=O)N[C@H]2CCCCNC(=O)[C@H](CC(N)=O)NC(=O)[C@@H](CC(=O)O)NC(=O)[C@H](Cc3cnc[nH]3)NC(=O)[C@@H](Cc3ccccc3)NC(=O)[C@H]([C@@H](C)CC)NC(=O)[C@@H](CCCN)NC2=O)[C@@H](C)CC)CS1 [bacitracin] ({Ileψ(thiazoline)Cys}-L[dE]IK[dOrn]I[dF]H[dD]N; lactam 4-C) | – | did not synergize with bacitracin, nor was there an additive benefit; also recorded: does not synergize with or provide additive benefit together with bacitracin | – | None of these antibacterial agents administered independently, or administered in a composition comprising nisin, were significantly more efficacious than the independent administration of nisin | no additive or synergistic effect was observed | –
5 | lysostaphin | – | – | – | None of these antibacterial agents administered independently, or administered in a composition comprising nisin, were significantly more efficacious than the independent administration of nisin | no additive or synergistic effect was observed | –
6 | neomycin | none of the antimicrobials tested (i.e., mupirocin, neomycin, and gentamicin) displayed the ability to synergize in vitro with nisin | – | did not synergize | – | – | –
